We go through one molecule from paper PMC9569450, “Dual Effect of Tryptamine on Prostate Cancer Cell Growth Regulation: A Pilot Study” (International Journal of Molecular Sciences, 2022).

For data set [1], the system named is PC-3 cells. Nature of the data set: MTT cell proliferation assay, PC-3. The format is cell-based, human. The following applies: Homo sapiens, PC-3, 48 h treatment in FBS-free medium, read-out: IC50 Value (Mean ± SD mM) PC-3. The method, then: (§1) PC-3, LNCaP, RWPE-1, HepG2, A549, and PANC-1 cells were purchased from the National Collection of Authenticated Cell Cultures (Shanghai, China). […] All the above cell cultures were supplied with 10% fetal bovine serum and 1% penicillin-streptomycin. RWPE-1 cells were cultured in keratinocyte serum-free medium (K-SFM, Gibco, New York, NY, USA) supplemented with 50 mg/L bovine pituitary extract and 5 μg/L epidermal growth factor (EGF). All cell lines were grown in a humidified atmosphere of 5% CO2 at 37 °C.
(§2) Cells were seeded in 100 μL complete medium in a 96-well plate, at a density of 10,000 cells/well for LNCaP and 5000 cells/well for other cells. Cells were pre-incubated for 24 h to allow for adherence before removal of complete medium and treatment with various concentrations of compounds in fetal bovine serum (FBS)-free medium for 48 h. After treatment, 20 μL/well MTT (5 mg/mL) was added and incubated for 3–4 h at 37 °C, and then 100 μL/well DMSO was added for MTT assay. The plate was shaken on an orbital shaker for 10 min. Absorbance was measured using a microplate reader at 492 nm for the MTT assay (performed in triplicates). Cell viability was normalized to control. Half inhibitory concentration (IC50) was calculated by SPSS Statistics 17.0. […] The experiments were independently repeated two to three times.
A general note: Tetrazolium assays rely on reduction of a dye to a coloured formazan, in cell work by metabolically active cells.

Data set [2] concerns PC-3, LNCaP, RWPE-1, A549, PANC-1, and HepG2 cells. Nature of the data set: MTT cell proliferation assay, all cell lines. The following applies: all cell lines tested; read-out: IC50 values for all six cell lines tested. The format is cell-based. The method, then: PC-3, LNCaP, RWPE-1, HepG2, A549, and PANC-1 cells were purchased from the National Collection of Authenticated Cell Cultures (Shanghai, China). PC-3 and A549 cells were cultured in F-12K Nutrient Mixture (Gibco, New York, NY, USA), LNCaP in RPMI 1640 (Gibco, New York, NY, USA), PANC-1 in Dulbecco’s Modified Eagle Medium (DMEM, Gibco, New York, NY, USA), and HepG2 in minimal essential medium (MEM, Gibco, New York, NY, USA). All the above cell cultures were supplied with 10% fetal bovine serum and 1% penicillin-streptomycin. RWPE-1 cells were cultured in keratinocyte serum-free medium (K-SFM, Gibco, New York, NY, USA) supplemented with 50 mg/L bovine pituitary extract and 5 μg/L epidermal growth factor (EGF). All cell lines were grown in a humidified atmosphere of 5% CO2 at 37 °C.
Cells were seeded in 100 μL complete medium in a 96-well plate, at a density of 10,000 cells/well for LNCaP and 5000 cells/well for other cells. Cells were pre-incubated for 24 h to allow for adherence before removal of complete medium and treatment with various concentrations of compounds in fetal bovine serum (FBS)-free medium for 48 h. After treatment, 20 μL/well MTT (5 mg/mL) was added and incubated for 3–4 h at 37 °C, and then 100 μL/well DMSO was added for MTT assay. The plate was shaken on an orbital shaker for 10 min. Absorbance was measured using a microplate reader at 492 nm for the MTT assay (performed in triplicates). Cell viability was normalized to control. Half inhibitory concentration (IC50) was calculated by SPSS Statistics 17.0. The combination index (CI) isobologram equation was used for the quantitative determination of the interaction between two compounds [62]:(1) Combination index CI =CA,x/ICx,A+CB,x/ICx,B where CA,x and CB,x are compound concentrations that […], and ICx,A and ICx,B are compound concentrations that provide the same effect when being used in combination. The experiments were independently repeated two to three times.

The test system of data set [3] is PANC-1 cells. Nature of the data set: MTT cell proliferation assay, PANC-1. It counts as cell-based. The conditions noted are these: Homo sapiens, PANC-1, 48 h treatment in FBS-free medium, read-out: IC50 Value (Mean ± SD mM) PANC-1. As for the experimental part:
as §1, §2

Data set [4] has as its system PC-3 xenograft tumors. Nature of the data set: PC-3 xenograft mouse model. It counts as in vivo. As for the experimental part:
Five-week-old male BALB/c nude mice were purchased from Charles River Laboratories (Beijing, China) and raised in a temperature and humidity-controlled environment (25 ± 2 °C, 50% ± 10% humidity) with a standard 12 h light-dark cycle with food and water in cages under germ-free conditions (SCXK2021-0006). All procedures involving animals and their care were approved by the Institutional Animal Care and Use Committee of the Ocean University of China in accordance with institutional and National Institutes of Health guidelines (OUC-SMP-2022-01-01). PC-3 cells (4 × 10^6 dissolved in 150 μL PBS) were injected subcutaneously into the armpit area of each mouse. For the first treatment group, when tumors reached 50 mm^3, 80 mg/kg of tryptamine dissolved in normal saline with 0.1% formic acid was administered intraperitoneally once every other day for 32 days (n = 6). […] The control groups were administrated with the vehicle. The tumor volume (mm^3) was calculated based on the formula:(2) Tumor volume (mm^3)=length×width^2/2

Data set [5] has as its system human colon cancer cell line HT29. The conditions noted are these: HT29 as in vitro model of intestinal epithelium; cited from earlier work.
Data set [6] has as its system PC-3 cells. Nature of the data set: Cell viability of PC-3 cells after 24 h (Figure S1). It counts as cell-based, human. As for the experimental part: Figure S1. Cell viability of PC-3 cell treated with various concentrations of tryptamine […]
Figure S2. Liver function test results and effects of tryptamine and 3-HAA treatments on the tumor growth of PC-3 xenograft mouse model. (A and B) Appearance and aspartate aminotransferase (AST, U/L) value of the liver of PC-3 xenograft mice received intraperitoneal administration of tryptamine (80 mg/kg, n = 6) and intratumoral administration of tryptamine (1 mg/100 mm3, n = 5), respectively. Size of the tumors of PC-3 xenograft mice received intratumoral administration of (C and E) tryptamine (1 mg/100 mm3) and 3-HAA (200 mg/kg) and intraperitoneal administration of (D and F) tryptamine (80 mg/kg) and 3-HAA (200 mg/kg), respectively.
Figure S3. Heatmap overview of altered PC-3 cell metabolic profiles in LC-MS (A) positive and (B) negative ion modes before and after tryptamine treatment.
Figure S4. MS/MS analyses of the discriminant metabolites in panels.
Figure S1. Cell viability of PC-3 cell treated with various concentrations of tryptamine for 24h. […]

For data set [7], the system named is A549, HepG2, and PANC-1 cells. Nature of the data set: MTT cell proliferation assay, other three cancer cell lines. It counts as cell-based. The following applies: A549, HepG2, and PANC-1, text summary. As for the experimental part: as §1, §2
For data set [8] the following is noted: mice; cited from earlier work.

Turning to `NCCc1c[nH]c2ccccc12` [Tryptamine], the IC50 (commonly the midpoint of a concentration-inhibition curve) in data set [1] was 0.24 ± 0.01 mM; in data set [2], not above 900 µM; in data set [3] it was 0.38 ± 0.01 mM; in data set [5], 670 ± 90 µM; in data set [7], 350 to 460 µM. For the same molecule, the “tumor volume and weight compared with the control group” value in data set [4] (intraperitoneal, 80 mg/kg once every other day for 32 days) was “increased tumor volume and weight”. Besides, the “adverse effects or toxicity in the liver” value in data set [4] (intratumoral, 1 mg/100 mm^3) was “without obvious signs of adverse effects or toxicity in the liver”. Moreover, the “tumor growth, tumor volume and weight” value in data set [4] (intratumoral, 1 mg/100 mm^3 every day for 16 days) is given as “significant tumor growth delay”. Moreover, in data set [6] (Homo sapiens, PC-3, 0.3 mM, read-out: percentage of viable cells), the viability at 300 µM was found to be 75%. Further, in data set [6] (PC-3, 0.15 mM), the “cell viability compared to the control group” value is “no significant change in cell viability”. In addition, in data set [8], the “median lethal dose (LD50)” value is ~ 200 mg/kg.
